The source of these data is patent US9487500B2, “Compounds and compositions thereof” (Inhibikase Therapeutics, Inc., priority 2012, dated 2016).

For the assay, the system named is K562 cells. As to the kind of experiment: MTS cell viability assay (K562 cell line). Format: cell-based. The conditions noted are these: Homo sapiens, 48 hr. As for the experimental part:
K562 cells were the first human immortalised myelogenous leukemia line to be established. K562 cells are of the erythroleukemia type, and the line is derived from a CML patient. The cells are non-adherent and rounded, are positive for the bcr:abl fusion gene.
K562 cell line is maintained in RPMI1640 with 10% fetal Bovine Serum. 2500 cells/well of K562 cells were plated in 96 well tissue culture plate. Cells were incubated for 48 hours with serially diluted compound (final concentration from 20 μM-0.002 μM) for 48 hr. MTS (3-(4,5-dimethylthiazol-2-yl)-5-(3-carboxymethoxyphenyl)-2-(4-sulfophenyl)-2H-tetrazolium), obtained from Promega was added to the wells and plates were incubated at […] in 5% CO2 for 4 hrs. The MTS compound is bio-reduced by cells into a colored formazan product that is soluble in tissue culture medium. The quantity of formazan product as measured by the amount of 490 nm absorbance is directly proportional to the number of living cells in culture. The absorbance was read at 490 nm (Spectramax microplate reader). The Percentage inhibition was calculated and plotted against the concentration of inhibitor and data was fit to Non Linear Regression curve fit (sigmoidal dose response curve with variable slope-four parameters) using Graph pad prism 5.
Background: Tetrazolium assays rely on reduction of a dye to a coloured formazan, in cell work by metabolically active cells.

For the molecule `Cc1ccc(NC(=O)c2ccc(CN3CC[N+](C)(COC(=O)N[C@H](C)c4ccccc4)CC3)cc2)cc1Nc1nccc(-c2cccnc2)n1` [Compound 1011, (R)-1-methyl-4-(4-((4-methyl-3-((4-(pyridin-3-yl)pyrimidin-2-yl)amino)phenyl)carbamoyl)benzyl)-1-((((1-phenylethyl)carbamoyl)oxy)methyl)piperazin-1-ium iodide], the inhibition at 0.2 µM was 45%, the inhibition at 2 µM was 63% and the inhibition at 20 µM was determined as 70%.

`CCC(C)(C)OC(=O)OC[N+]1(C)CCN(Cc2ccc(C(=O)Nc3ccc(C)c(Nc4nccc(-c5cccnc5)n4)c3)cc2)CC1` [Compound 1028, 1-methyl-4-(4-(4-methyl-3-(4-(pyridin-3-yl)pyrimidin-2-ylamino)phenylcarbamoyl)benzyl)-1-((tert-pentyloxycarbonyloxy)methyl)piperazin-1-ium iodide] registered an inhibition at 0.2 µM of 40%, an inhibition at 2 µM of 63% and an inhibition at 20 µM of 76%.

Regarding `Cc1ccc(NC(=O)c2ccc(CN3CCN(C)CC3)cc2)cc1Nc1nccc(-c2cccnc2)n1` [imatinib, 4-[(4-methylpiperazin-1-yl)methyl]-N-(4-methyl-3-{[4-(pyridin-3-yl)pyrimidin-2-yl]amino}phenyl)benzamide, reference compound], the inhibition at 0.2 µM came out at 48%, the inhibition at 2 µM was found to be 64% and testing at 20 µM gave an inhibition of 67%.

A word on the inhibition: it is the drop in the measured response relative to a control, in per cent.
